Like-named read-outs stand apart in the source and are kept apart here.
Tests used:
[1] = PROTAC-CID inducible EYFP gene activation, flow cytometry; format: cell-based, human; conditions: Homo sapiens, HEK-293T, FIG. 13A
Experimental: (§1) Fluorescence assay using flow cytometry analysis. Cells were treated with 0.05% Trpsin EDTA (Thermo Fisher Scientific no. 25300054) or TrypLE (Thermo Fisher Scientific no. 12605028) after transfection and centrifuged at 3000 g for 5 min. Supernatant was removed and the cell pellet was resuspended with 200 μL phosphate buffered saline (PBS) without calcium and magnesium (Thermo Fisher Scientific no. 10010023). Cells were transferred into 12×75 mm flow tubes (Global Scientific no. 110410). Cells were analyzed by MA900 flow cytometry (SONY). 405 nm laser (FL6 filter) was used for testing the BFP channel. 488 nm (FL1 filter) was used for testing the EYFP and GFP channel. Automated alignment using Automatic Setup Beads kit (SONY no. LE-B3001) is performed before running samples. In FIGS. 3A, 3B, and 17, experiments were performed under 2% FSC, 17% BSC, 24% FL1. In FIG. 18, experiments were performed under 2% FSC, 17% BSC, 27% FL1. All the other experiments were performed under 2% FSC, 17% BSC, 24% FL1 and 27% FL6. Flow cytometry data was processed and analyzed by FlowJo 10. Events were first gated with forward scatter-Area (FSC-A) and side scatter-Area (SSC-A) to select viable cells and remove the debris and dead cells. Cells were further gated with FSC-A and FSC-Height (FSC-H) for selecting single cells. The mean intensity of the reporter fluorescent protein (BFP and EYFP) in viable and single cell populations were calculated by FlowJo 10 as the mean of FL6-A and FL1-A. When calculating the fold change of relative fluorescence units (RFU), the relative fluorescence units of EYFP was calculated by dividing the mean of fluorescence intensity of EYFP with the mean of BFP fluorescence intensity for normalization as the following formula: […]
(§2) Next, the mean of the normalized relative fluorescence units of induced group were divided by the value of control group for calculating the fold change as the following formula: […]
(§3) Transfection and microscopy. HEK293T cells (American Type Culture Collection, no. CRL-3216) were cultured with high-glucose Dulbecco's modified Eagle's medium (DMEM) (Thermo Fisher Scientific no. 10569044) with 10% fetal bovine serum (FBS) (Thermo Fisher Scientific no. 10437028) and 1×penicillin-streptomycin (Thermo Fisher Scientific no. 15140122) at 37° C. with 5% CO2. Except for the data in FIGS. 3C, 3E, and 3H, cells were plated into 96 well plate (Corning no. 3598) and transfected by Polyethyleneimine Max (PEI Max) (Polysciences no. 24765-1). 1.5 μL PEI Max (1 mg/mL, pH=7.1) and 100 μl DMEM were mixed with plasmids to be slowly dropped into the cell medium after 30 mins of incubation. Medium was changed 12 hours post-transfection. The inductive small molecules, including Rapamycin (STEM CELL technologies no. 73362), dTAG-13 (TOCRIS no. 6605/5), dTAG^V-1 (TOCRIS no. 6744-5), dBRD9 (TOCRIS no. 6606/5), dTRIM24 (TOCRIS no. 6607/5), MZ1 (TOCRIS no. 6154/5), AT1 (TOCRIS no. 6356/5), TL13-12 (TOCRIS no. 6744/5), TL13-112 (TOCRIS no. 6745/5), dTAG-7 (TOCRIS no. 69125), ZXH3-26 (TOCRIS no. 6713/5) and ABA (GoldBio no. A-050-100), dissolved in Dimethyl sulfoxide (DMSO) (Sigma, no. D8418) were added. For the microscopy observation, the images were taken by Microscopy EVOS (Life Technologies) and processed by ImageJ (Schneider et al., 2012). If not otherwise noted, 60 ng of each plasmid were used for each sample.
(§4) Step-by-step fluorescence protein activation assay protocol. Reagents: • 1. PEI Max (Polysciences no. 24765-1) • 2. DMEM, high glucose, GlutaMAX™ Supplement, pyruvate (Thermo Fisher Scientific no. 10569044) • 3. Penicillin-Streptomycin (10,000 U/mL) (Thermo Fisher Scientific no. 15140122) • 4. Fetal Bovine Serum 500ML (FBS) (Thermo Fisher Scientific no. 10437028) • 5. TrypLE™ Express Enzyme (1×), phenol red (Thermo Fisher Scientific no. 12605068) • 6. PBS pH=7.4 (Thermo Fisher Scientific no. 10010023) • 7. Sony sorting chip […] for MA900 (SONY no. LE-C3210) • 8. Automatic Setup Beads kit (SONY no. LE-B3001) • 9. […]

[2] = system: pUAS-1-driven EYFP expression in HEK293T cells transfected with GAL4- and VPR-fused PROTAC target protein / E3 ubiquitin ligase; assay: as above; format: cell-based, human; conditions: for Bottom (best-fit value) / Span (best-fit value) / Top (best-fit value): Table 4 nonlinear regression of EYFP activation; for Bottom (best-fit value) / Span (best-fit value) / Top (best-fit value) / Hillslope (best-fit value) / logEC50 (best-fit value): FIG. 13A; for Hillslope (best-fit value) / logEC50 (best-fit value): Table 4 nonlinear regression; for increase in EYFP expression / EYFP induction compared to DMSO-treated controls: bromodomain-VPR fusion co-transfected with GAL4-VHL, FIG. 1C 5 μM dTRIM24, FIG. 1D 100 nM MZ1 or 1 μM AT1
Experimental: as §1, §2, §3, §4

[3] = system: pUAS-2-Fluc expression in HEK293T cells with cognate or non-cognate GAL4/VPR protein pairs; assay: Orthogonality analysis, Firefly luciferase (Fluc) luminescence; format: cell-based, human; conditions: seven different protein pairs, 2 days, FIGS. 2A and 14
Experimental: Luciferase luminescence intensity measurement. Before transfection, HEK293T cells were seeded in clear bottom 96 well assay plates (Corning no. 3610) with 100 μL DMEM with 10% FBS and 1× penicillin-streptomycin at 37° C. with 5% CO2. When cells reached 50% confluency, 1.5 μL PEI Max (1 mg/mL, pH=7.1) and 100 μL DMEM were mixed with 60 ng of each plasmid (GAL4 and VPR fused target protein or E3 ubiquitin ligase, pUAS-2-Fluc) for 30 min at room temperature. Mixture was transferred into cells gently. 12 h after transfection, medium was changed, and the inductive small molecules were supplied. 2-days post induction, 120 μL of medium was aspirated from each well containing 200 μL of medium, leaving 80 μL of medium per well, then treated with 40 μL of lysis buffer (500 mM DTT (Sigma no. D0632), 10 mM coenzyme A (RPI no. C95275), 100 mM ATP (Thermo Fisher Scientific no. R1441), 80 mg/mL D-luciferin (GoldBio no. LUCNA-100), Triton lysis buffer (0.1082 M Tris-HCl, 0.0419 M Tris-Base, 75 mM NaCl, 3 mM MgCl2)). Plate was shaken with 20 seconds in “Orbital” mode with frequency of 432 rpm and Amplitude of 1 mm to lysis the cells. Recording the luminescence by plate reader Infinite M200 (TECAN) with 1000 ms integration time using Megellan v1.7 (TECAN). Mean of luciferase luminescence relative light units (RLU) was calculated by the average of three biological replications. Normalized RLU were calculated by dividing RLU of the tested group with mean of RLU of DMSO treated control group for normalization: […]

GAL4-FKBP12^F36V (human) = assay: cell-based or functional assay
[4] = Table 4 nonlinear regression, Prism 9 [Agonist] vs. response variable slope (four parameters), no unit in table (the source gives nM), read-out: EC50 (best-fit value)
[5] = dose-response, read-out: EC50 for gene activation

CC1=CC(=O)CC(C)(C)[C@@]1(O)/C=C/C(C)=C\C(=O)O [ABA, abscisic acid]
EC50 [1, 4]: 763 nM
EC50 [1, 5]: 763 nM
Bottom (best-fit value) [2]: 1.587
Span (best-fit value) [2]: 77.84
Top (best-fit value) [2]: 79.43
Hillslope (best-fit value) [2]: 2.083
logEC50 (best-fit value) [2]: 2.882

CC(=O)N[C@H](C(=O)N1C[C@H](O)C[C@H]1C(=O)NCc1ccc(-c2scnc2C)cc1)C(C)(C)SCCCCCCNC(=O)C[C@@H]1N=C(c2ccc(Cl)cc2)c2c(sc(C)c2C)-n2c(C)nnc21 [AT1]
orthogonality: Fluc activation with cognate vs non-cognate protein partners [3]: interact with the same protein pairs

Nc1cccc2c1CN(C1CCC(=O)NC1=O)C2=O (centres unmarked) [Lenalidomide]
inducible gene activation efficiency compared with dTAG-13 PROTAC-CID ([2]; CRBN-VPR with GAL4 fused IKZF1 or IKZF3, Lenalidomide 1 μM vs 100 nM dTAG-13, 2 days, FIGS. 11D-11E): significantly less efficient than the dTAG-13 PROTAC-CID system

COc1cc(N2CCN(CCOCCOCCNC(=O)CNc3cccc4c3C(=O)N(C3CCC(=O)NC3=O)C4=O)CC2)ccc1Nc1ncc(Cl)c(Nc2ccccc2S(=O)(=O)C(C)C)n1 (centres unmarked) [TL13-12]
orthogonality: Fluc activation with cognate vs non-cognate protein partners [3]: interact with the same protein pairs

Cc1cc(Nc2ncc(Cl)c(Nc3ccccc3S(=O)(=O)C(C)C)n2)c(OC(C)C)cc1C1CCN(CCOCCOCCNC(=O)CNc2cccc3c2C(=O)N(C2CCC(=O)NC2=O)C3=O)CC1 (centres unmarked) [TL13-112]
orthogonality: Fluc activation with cognate vs non-cognate protein partners [3]: interact with the same protein pairs

CCCOc1cccc(Oc2cc3c(cc2NS(=O)(=O)c2cccc(C(=O)NCCOCCOCCOCC(=O)N[C@H](C(=O)N4C[C@H](O)C[C@H]4C(=O)NCc4ccc(-c5scnc5C)cc4)C(C)(C)C)c2)n(C)c(=O)n3C)c1 [dTRIM24]
EC50 [1, 4]: 6350 nM
EC50 [1, 5]: 6300 nM
grades of EYFP intensity ([2]; HEK293T transfected with GAL4-VHL, TRIM24^BD-VPR, BRD4^BD2-VPR and reporter plasmid, FIG. 2E: dTRIM24, MZ1 100 nM): 37 fold
Bottom (best-fit value) [2]: 0.5037
Span (best-fit value) [2]: 1430
Top (best-fit value) [2]: 1431
Hillslope (best-fit value) [2]: 1.463
logEC50 (best-fit value) [2]: 3.803
fold change gene activation activity ([2]; at 5 μM): more than 500 fold
fold change in EYFP expression ([2]; below 1 μM): less than 100 fold

CRBN-VPR
EC50 of the inducer dTAG-13 for EYFP gene activation (dose-response, FIG. 13A) (GAL4-FKBP12^F36V (human)): 53 nM
fold increase in EYFP expression with dTAG-13 (GAL4-FKBP12^F36V (human)): > 100 fold

VHL-VPR (from UniProt P40337 1-213)
EC50 of the inducer dTAG^V-1 for EYFP gene activation (dose-response, FIG. 13A) (GAL4-FKBP12^F36V (human)): 228 nM

B1: BRD4^BD2-VPR: Fusion protein of VPR with bromodomain BD2 of BRD4 (SEQ ID NO: 7) (protein)
chain: MPKKKRKVGGGSPGGGGSSKVSEQLKCCSGILKEMFAKKHAAYAWPFYKPVDVEALGLHDYCDIIKHPMDMSTIKSKLEAREYRDAQEFGADVRLMFSNCYKYNPPDHEVVAMARKLQDVFEMRFAKMPDGGGSRADPKKKRKVEASGSGRADALDDFDLDMLGSDALDDFDLDMLGSDALDDFDLDMLGSDALDDFDLDMLINSRSQYLPDTDDRHRIEEKRKRTYETFKSIMKKSPFSGPTDPRPPPRRIAVPSRSSASVPKPAPQPYPFTSSLSTINYDEFPTMVFPSGQISQASALAPAPPQVLPQAPAPAPAPAMVSALAQAPAPVPVLAPGPPQAVAPPAPKPTQAGEGTLSEALLQLQFDDEDLGALLGNSTDPAVFTDLASVDNSEFQQLLNQGIPVAPHTTEPMLMEYPEAITRLVTGAQRPPDPAPAPLGAPGLPNGLLSGDEDFSSIADMDFSALLGSGSGSRDSREGMFLPKPEAGSAISDVFEGREVCQPKRIRPFHPPGSPWANRPLPASLAPTPTGPVHEPVGSLTPAPVPQPLDPAPAVTPEASHLLEDPDEETSQAVKALREMADTVIPQKEEAAICGQMDLSHPPPRGHLDELTTTLESMTEDLNLDSPLTPELNEILDTFLNDECLLHAMHISTGLSIFDTSLFTSGGGSKRPAATKKAGQAKKKKSR
increase in EYFP expression / EYFP induction compared to DMSO-treated controls [2]: 441 fold

B2: TRIM24BD-VPR: Fusion protein of VPR with the bromodomain of TRIM24 (SEQ ID NO: 4) (protein)
chain: MPKKKRKVGGGSPGGGGSPNEDWCAVCQNGGELLCCEKCPKVFHLSCHVPTLTNFPSGEWICTFCRDLSKPEVEYDCDAPSHNSEKKKTEGLVKLTPIDKRKCERLLLFLYCHEMSLAFQDPVPLTVPDYYKIIKNPMDLSTIKKRLQEDYSMYSKPEDFVADFRLIFQNCAEFNEPDSEVANAGIKLENYFEELLKNLYPGGGSRADPKKKRKVEASGSGRADALDDFDLDMLGSDALDDFDLDMLGSDALDDFDLDMLGSDALDDFDLDMLINSRSQYLPDTDDRHRIEEKRKRTYETFKSIMKKSPFSGPTDPRPPPRRIAVPSRSSASVPKPAPQPYPFTSSLSTINYDEFPTMVFPSGQISQASALAPAPPQVLPQAPAPAPAPAMVSALAQAPAPVPVLAPGPPQAVAPPAPKPTQAGEGTLSEALLQLQFDDEDLGALLGNSTDPAVFTDLASVDNSEFQQLLNQGIPVAPHTTEPMLMEYPEAITRLVTGAQRPPDPAPAPLGAPGLPNGLLSGDEDFSSIADMDFSALLGSGSGSRDSREGMFLPKPEAGSAISDVFEGREVCQPKRIRPFHPPGSPWANRPLPASLAPTPTGPVHEPVGSLTPAPVPQPLDPAPAVTPEASHLLEDPDEETSQAVKALREMADTVIPQKEEAAICGQMDLSHPPPRGHLDELTTTLESMTEDLNLDSPLTPELNEILDTFLNDECLLHAMHISTGLSIFDTSLFTSGGGSKRPAATKKAGQAKKKKSR
increase in EYFP expression / EYFP induction compared to DMSO-treated controls [2]: 592 fold
